Target: T1, NUP-MDSC cell lysate (Mus musculus, UniProt P59644)
T1 construct: endogenous in cells; host or cells: mouse NUP-MDSC (lysate)
T1 sequence (P59644 1-1003): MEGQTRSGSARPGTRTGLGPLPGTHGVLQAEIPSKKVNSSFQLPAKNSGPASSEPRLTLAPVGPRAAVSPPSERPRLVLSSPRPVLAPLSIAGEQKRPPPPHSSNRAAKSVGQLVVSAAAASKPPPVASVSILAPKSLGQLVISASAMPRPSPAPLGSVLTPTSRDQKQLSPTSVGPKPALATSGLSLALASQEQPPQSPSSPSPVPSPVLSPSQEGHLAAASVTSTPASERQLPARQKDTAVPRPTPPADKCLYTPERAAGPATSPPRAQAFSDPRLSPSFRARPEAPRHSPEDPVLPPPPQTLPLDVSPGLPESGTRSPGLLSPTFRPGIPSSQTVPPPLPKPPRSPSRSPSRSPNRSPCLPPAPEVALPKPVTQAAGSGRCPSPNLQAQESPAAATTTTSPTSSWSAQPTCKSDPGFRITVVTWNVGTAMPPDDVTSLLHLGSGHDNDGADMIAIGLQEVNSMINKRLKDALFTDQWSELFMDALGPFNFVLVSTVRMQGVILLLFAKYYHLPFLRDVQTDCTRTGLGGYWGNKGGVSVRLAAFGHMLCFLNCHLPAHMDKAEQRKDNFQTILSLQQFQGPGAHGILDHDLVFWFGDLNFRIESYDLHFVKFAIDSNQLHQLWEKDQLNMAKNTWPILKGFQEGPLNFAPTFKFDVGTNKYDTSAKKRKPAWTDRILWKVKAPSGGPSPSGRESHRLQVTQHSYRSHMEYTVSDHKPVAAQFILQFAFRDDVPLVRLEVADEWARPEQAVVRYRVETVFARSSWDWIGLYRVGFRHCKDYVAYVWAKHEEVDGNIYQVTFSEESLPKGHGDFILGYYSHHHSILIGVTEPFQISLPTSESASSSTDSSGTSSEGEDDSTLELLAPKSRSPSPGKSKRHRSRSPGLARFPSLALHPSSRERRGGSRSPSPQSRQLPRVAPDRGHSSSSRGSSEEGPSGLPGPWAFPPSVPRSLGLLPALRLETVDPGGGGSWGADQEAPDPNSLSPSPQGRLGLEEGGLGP
Experiment: Solvent-induced protein precipitation profiling, proteome-wide
Format: binding
Details: protein Inpp5j; soluble fraction; 26 uM
Description: NUP-MDSCs were differentiated as described above, washed twice with PBS, resuspended in lysis buffer (PBS, 0.4% IGEPAL CA-630, 1× Halt Protease-Inhibitor Cocktail (Thermo Fisher Scientific)), and subjected to three freeze-thaw cycles. The lysate was cleared by centrifugation for 30 min at 18,000g and 4 °C. The soluble fraction was diluted to 4 mg/ml and allowed to warm up to room temperature. Equal volumes of lysate were treated in triplicates with 100 x compound stock solutions (in DMSO) or DMSO for 15 min at room temperature (final concentrations: cmpd 2: 7.8 μM (3xEC50) and 26 μM (10xEC50), cmpd 3: 10 μM and 26 μM). Similar to a previous study ([46]), each sample was divided into eight aliquots to be denatured using different concentrations (8%, 10%, 12%, 14%, 16%, 18%, 20%, 22%) of acetone:ethanol:acetic acid (50:50:0.1) in water for 20 min at 37 °C with vigorous shaking. Aggregated proteins were separated by centrifugation for 45 min at 4 °C and 3900g. Next, equal amounts of the soluble fraction were pooled for subsequent proteomic analysis.
Methanol was added to 100 μg of the pooled supernatants to a final concentration of 70% and further processed according to the R2P1 protocol ([47]), with tryptic digestion performed in 50 mM Hepes (pH 8.5). Elution fractions were combined and dried by vacuum centrifugation. Dried samples were resuspended in deionized water, and TMT labeling was performed according to Zecha et al. ([35]). All 15 samples (5 treatment conditions in triplicates) were labeled with one TMTpro plex. Next, equal amounts were pooled and desalted by C18 solid-phase extraction cartridges (Sep-Pak Vac 1 cc C18 Cartridges, Waters Corp). Desalted peptides were chromatographically separated via basic reversed phase chromatography as previously described ([36]) into 24 fractions, dried down, and stored at −20 °C until further analysis.
Peptides were analyzed via LC-MS/MS on a Vanquish Neo UHPLC coupled to an Orbitrap Eclipse Tribrid mass spectrometer (Thermo Fisher Scientific). […] The mass spectrometer was operated in data-dependent mode and positive ionization mode. Samples were measured, employing a MS3 method with real-time search. […] Iontrap-MS2 spectra for peptide identification were acquired using HCD fragmentation with 35% NCE, an isolation window of 0.7 m/z, an AGC target value of 5e4 charges, and a maxIT of 35 ms. To obtain quantitative information on TMT reporter ions, each peptide precursor was fragmented again as for MS2 analysis followed by synchronous selection of the up to 10 most intense peptide fragments in the iontrap ([37]) and further fragmentation via HCD using an NCE of 55%. For the MS3 scan, real-time search was enabled to only trigger a MS3 scan for peptides that are TMT-labeled and can be identified (searched against a mouse database, same as used for maxquant processing). The MS3 scan was recorded in the OT at 30,000 resolution (scan range 110–500 m/z, isolation window of 0.7 m/z, AGC of 2e4 charges, maxIT of 120 ms). The cycle time was set to 3 s, and the dynamic exclusion lasted for 60 s.
Raw files were searched with Maxquant (v. 2.0.3.0) against the mouse reference proteome (UP000000589, canonical, download 10/2019, 55,029 entries) with standard settings for reporter ion MS3 unless described otherwise ([39]). Isotope impurities of the TMT lot were specified to allow MaxQuant the automated correction of TMT intensities. […] Trypsin/P was specified as the proteolytic enzyme with up to two missed cleavage sites allowed. […]

CCOC(=O)c1nnn(-c2nn3nnnc3c3ccccc23)c1C [compound 2]
log2 FC cmpd2_26uM/cmpd3_26uM: 0.07

Source: publication PMC10518717, “High-Throughput Screening and Proteomic Characterization of Compounds Targeting Myeloid-Derived Suppressor Cells” (Molecular & Cellular Proteomics : MCP, 2023)
